Laboratory results reported in US12410160B2 (Gilead Sciences, Inc., priority 2021, dated 2025).
Like-named read-outs stand apart in the source and are kept apart here.

Legend:
human KHK-C = human KHK-C (Homo sapiens (Human), UniProt P50053); test: KHK Biochemical Assay (IC50), ADP-Glo, KHK-C; conditions: ADP-Glo; average of at least two separate assays
In short: (§1)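 ADP-Glo luminescence measured ADP made over a 4 h room-temperature reaction of ATP plus fructose, started after 30 min compound–enzyme pre-incubation. Buffer: 50 mM Hepes pH 7.4, 140 mM KCl, 5 mM MgCl2, 0.01% Triton-X. Enzyme was His-tagged, BL21 (DE3)-expressed, Ni-NTA-purified; compounds in 1:3 DMSO dilution series.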

human KHK-A = human KHK-A (Homo sapiens (Human), UniProt P50053); test: KHK Biochemical Assay (IC50), ADP-Glo, KHK-A; conditions: ADP-Glo; average of at least two separate assays
Chain of human KHK-A (P50053 other isoform, or with tags, fused parts or gaps): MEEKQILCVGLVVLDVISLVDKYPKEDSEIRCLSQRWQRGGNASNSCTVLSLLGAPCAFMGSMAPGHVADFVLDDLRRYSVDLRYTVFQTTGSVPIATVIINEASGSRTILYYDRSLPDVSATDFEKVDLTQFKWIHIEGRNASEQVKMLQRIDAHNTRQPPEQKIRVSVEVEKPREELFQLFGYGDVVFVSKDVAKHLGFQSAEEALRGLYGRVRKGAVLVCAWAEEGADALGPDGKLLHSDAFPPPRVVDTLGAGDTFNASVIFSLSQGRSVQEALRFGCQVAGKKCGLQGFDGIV
In short: as §1

[1] = target: KHK-C expressed in NRK-52E cells (Homo sapiens (Human), UniProt P50053); test: KHK-C Cell-based Assay (EC50), NRK CTG, fructose-mediated ATP-depletion
Chain of KHK-C expressed in NRK-52E cells (P50053 whole entry): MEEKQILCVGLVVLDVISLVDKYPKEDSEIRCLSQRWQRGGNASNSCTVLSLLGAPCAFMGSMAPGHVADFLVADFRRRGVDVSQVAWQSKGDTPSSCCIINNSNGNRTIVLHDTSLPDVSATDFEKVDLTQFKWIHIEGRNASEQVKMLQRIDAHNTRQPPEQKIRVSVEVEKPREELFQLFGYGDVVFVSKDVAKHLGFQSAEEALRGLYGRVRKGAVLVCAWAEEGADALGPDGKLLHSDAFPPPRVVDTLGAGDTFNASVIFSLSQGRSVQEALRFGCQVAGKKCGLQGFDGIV

Chain of human KHK-C (P50053 whole entry): as above

Structure (SMILES) | IC50 (human KHK-C) [nM] | IC50 (human KHK-A) [nM] | EC50 [1] [nM] | EC50 ([1]; read-out: NRK CTG EC50, NRK-52E cells, fructose-mediated ATP-depletion, Cell-Titer Glo) [nM]
C[C@H]1CCN1c1nc2c(c(-c3cccc(NS(=O)(=O)CCC(=O)O)c3)n1)CCC2 [Example 83, (S)-3-(N-(3-(2-(2-methylazetidin-1-yl)-6,7-dihydro-5H-cyclopenta[d]pyrimidin-4-yl)phenyl)sulfamoyl)propanoic acid] | 10.3 | 32.5 | > 5000 | 
C[C@H]1CCN1c1nc2c(c(-c3ccc4c(c3)S(=O)(=O)NC4=O)n1)CCC2 [Example 86, (S)-6-(2-(2-methylazetidin-1-yl)-6,7-dihydro-5H-cyclopenta[d]pyrimidin-4-yl)benzo[d]isothiazol-3(2H)-one 1,1-dioxide] | 38.6 | 50.2 | > 5000 | 
C[C@H]1CCN1c1nc2c(c(-c3cccc(CS(C)(=O)=O)c3)n1)CCC2 [Example 88, (S)-2-(2-methylazetidin-1-yl)-4-(3-((methylsulfonyl)methyl)phenyl)-6,7-dihydro-5H-cyclopenta[d]pyrimidine] | 62.8 | 75.3 | 214 | 
C[C@H]1CCN1c1nc2c(c(-c3ccc(C(=O)NCCO)cc3)n1)CCC2 [Example 91, (S)—N-(2-hydroxyethyl)-4-(2-(2-methylazetidin-1-yl)-6,7-dihydro-5H-cyclopenta[d]pyrimidin-4-yl)benzamide] | 55.6 | 45.2 | 120 | 
NS(=O)(=O)c1cccc(-c2nc(N3CC[C@@H]3CO)nc3c2CCC3)c1 [Example 92, (R)-3-(2-(2-(hydroxymethyl)azetidin-1-yl)-6,7-dihydro-5H-cyclopenta[d]pyrimidin-4-yl)benzenesulfonamide] | 93 | 82.3 | 368 | 
NC(=O)c1ccc(-c2nc(N3CC[C@@H]3CO)nc3c2CCC3)cc1 [Example 95, (R)-4-(2-(2-(hydroxymethyl)azetidin-1-yl)-6,7-dihydro-5H-cyclopenta[d]pyrimidin-4-yl)benzamide] | 43.1 | 60.3 | 221 | 
C[C@H]1CCN1c1nc2c(c(-c3ccc(-c4nnn[nH]4)cc3)n1)CCC2 [Example 104, (S)-4-(4-(1H-tetrazol-5-yl)phenyl)-2-(2-methylazetidin-1-yl)-6,7-dihydro-5H-cyclopenta[d]pyrimidine] | 46.2 | 119 | > 5000 | 
C[C@@H]1CN(c2nc3c(c(-c4ccc(C(N)=O)cc4)n2)CCC3)[C@H]1C [Example 106] | 126 | 148 |  | 209
C[C@H]1CN(c2nc3c(c(-c4ccc(C(N)=O)cc4)n2)CCC3)[C@H]1C [Example 107, 4-(2-((2S,3S)-2,3-dimethylazetidin-1-yl)-6,7-dihydro-5H-cyclopenta[d]pyrimidin-4-yl)benzamide] | 1060 | 1550 | 2920 | 
C[C@H]1CCN1c1nc2c(c(-c3cn4cnc(C(N)=O)c4s3)n1)CCC2 [Example 119, (S)-2-(2-(2-methylazetidin-1-yl)-6,7-dihydro-5H-cyclopenta[d]pyrimidin-4-yl)imidazo[5,1-b]thiazole-7-carboxamide] | 2.4 | 13.4 | 6.6 | 
C[C@H]1CCN1c1nc2c(c(-c3ccc(F)c(S(N)(=O)=O)c3)n1)CCC2 [Example 122, (S)-2-fluoro-5-(2-(2-methylazetidin-1-yl)-6,7-dihydro-5H-cyclopenta[d]pyrimidin-4-yl)benzenesulfonamide] | 41.8 | 44.5 | 51.8 | 
Cc1ccc(-c2nc(N3CC[C@@H]3C)nc3c2CCC3)cc1S(N)(=O)=O [Example 123, (S)-2-methyl-5-(2-(2-methylazetidin-1-yl)-6,7-dihydro-5H-cyclopenta[d]pyrimidin-4-yl)benzenesulfonamide] | 30.5 | 40.2 | 62.4 | 
C[C@H]1CCN1c1nc2c(c(-c3ccc(C(N)=O)cc3)n1)CC2 [Example 124, (S)-4-(3-(2-methylazetidin-1-yl)-2,4-diazabicyclo[4.2.0]octa-1,3,5-trien-5-yl)benzamide] | 328 | 535 | 973 | 
C[C@H]1[C@H](O)CN1c1nc2c(c(-c3ccc(C(N)=O)cc3)n1)CC2 [Example 125] | 572 | 932 | 3560 | 
C[C@H]1CCN1c1nc2c(c(-c3ccc(OC(F)(F)F)c(S(N)(=O)=O)c3)n1)CCC2 [Example 126, (S)-5-(2-(2-methylazetidin-1-yl)-6,7-dihydro-5H-cyclopenta[d]pyrimidin-4-yl)-2-(trifluoromethoxy)benzenesulfonamide] | 400 | 406 | 253 | 
C[C@H]1CCN1c1nc2c(c(-c3ccc(C4(O)COC4)cc3)n1)CCC2 [Example 127, (S)-3-(4-(2-(2-methylazetidin-1-yl)-6,7-dihydro-5H-cyclopenta[d]pyrimidin-4-yl)phenyl)oxetan-3-ol] | 65.5 | 99.6 | 223 | 
C[C@H]1CCN1c1nc(-c2ccc(C(N)=O)cc2)c2c(n1)C(F)(F)CC2 [Example 128, (S)-4-(7,7-difluoro-2-(2-methylazetidin-1-yl)-6,7-dihydro-5H-cyclopenta[d]pyrimidin-4-yl)benzamide] | 2.3 | 2.3 | 6.3 | 
C[C@H]1CCN1c1nc2c(c(-c3cc(S(N)(=O)=O)c(F)cc3F)n1)CCC2 [Example 130, (S)-2,4-difluoro-5-(2-(2-methylazetidin-1-yl)-6,7-dihydro-5H-cyclopenta[d]pyrimidin-4-yl)benzenesulfonamide] | > 5000 | > 5000 | > 5000 | 
C[C@H]1CCN1c1nc2c(c(-c3ccc4ccc(=O)[nH]c4c3)n1)CCC2 [Example 132, (S)-7-(2-(2-methylazetidin-1-yl)-6,7-dihydro-5H-cyclopenta[d]pyrimidin-4-yl)quinolin-2(1H)-one] | 71.8 | 97.6 | 131 | 
C[C@H]1CCN1c1nc2c(c(-c3ccc4ccc(=O)n(CCC(=O)O)c4c3)n1)CCC2 [Example 133, (S)-3-(7-(2-(2-methylazetidin-1-yl)-6,7-dihydro-5H-cyclopenta[d]pyrimidin-4-yl)-2-oxoquinolin-1(2H)-yl)propanoic acid] | 141 | 236 | > 5000 | 
C[C@H]1CCN1c1nc2c(c(-c3ccc4c(c3)CC(CC(=O)O)C4)n1)CCC2 (stereo partly drawn) [Example 134, 2-(5-(2-((S)-2-methylazetidin-1-yl)-6,7-dihydro-5H-cyclopenta[d]pyrimidin-4-yl)-2,3-dihydro-1H-inden-2-yl)acetic acid] | 89.9 | 158 | 1030 | 
C[C@H]1CCN1c1nc2c(c(-c3ccc4c(c3)CC(CC(N)=O)C4)n1)CCC2 (stereo partly drawn) [Example 135, 2-(5-(2-((S)-2-methylazetidin-1-yl)-6,7-dihydro-5H-cyclopenta[d]pyrimidin-4-yl)-2,3-dihydro-1H-inden-2-yl)acetamide] | 111 | 126 | 277 | 
C[C@H]1CCN1c1nc2c(c(-c3ccc4c(c3)CC3C(C(=O)O)C43)n1)CCC2 (stereo partly drawn) [Example 136, 4-(2-((S)-2-methylazetidin-1-yl)-6,7-dihydro-5H-cyclopenta[d]pyrimidin-4-yl)-1,1a,6,6a-tetrahydrocyclopropa[a]indene-1-carboxylic acid] | 62 | 114 | 2460 | 
C[C@H]1CCN1c1nc2c(c(-c3ccc4c(c3)CC(C(=O)O)C4)n1)CCC2 (stereo partly drawn) [Example 139, 5-(2-((S)-2-methylazetidin-1-yl)-6,7-dihydro-5H-cyclopenta[d]pyrimidin-4-yl)-2,3-dihydro-1H-indene-2-carboxylic acid] | 55.3 | 85.8 | 2490 | 
C[C@H]1CCN1c1nc2c(c(-c3ccc4c(c3)CC(C(N)=O)C4)n1)CCC2 (stereo partly drawn) [Example 140, 5-(2-((S)-2-methylazetidin-1-yl)-6,7-dihydro-5H-cyclopenta[d]pyrimidin-4-yl)-2,3-dihydro-1H-indene-2-carboxamide] | 52.8 | 28.1 | 163 | 
C[C@@H]1N(c2nc3c(c(-c4ccc(C(N)=O)cc4)n2)CCC3)C[C@@]1(C)O [Example 141] | 290 | 334 | 1260 | 
NC(=O)c1ccc(-c2nc(N3CCCC3)nc3c2CCC3)cc1 [Example 142, 4-(2-(pyrrolidin-1-yl)-6,7-dihydro-5H-cyclopenta[d]pyrimidin-4-yl)benzamide] | 2430 | 2110 | 2040 | 
C[C@H]1CCN1c1nc2c(c(-c3ccc4nc(N)ccc4c3)n1)CCC2 [Example 143, (S)-6-(2-(2-methylazetidin-1-yl)-6,7-dihydro-5H-cyclopenta[d]pyrimidin-4-yl)quinolin-2-amine] | 30.6 | 21.4 | 43.3 | 
C[C@H]1CCN1c1nc2c(c(-c3ccc(C(N)=O)c4ccccc34)n1)CCC2 [Example 144, (S)-4-(2-(2-methylazetidin-1-yl)-6,7-dihydro-5H-cyclopenta[d]pyrimidin-4-yl)-1-naphthamide] | 2400 | 1690 | 2440 | 
C[C@H]1CCN1c1nc2c(c(-c3ccc4c(c3)C3(CCC4)CC3C(=O)O)n1)CCC2 (stereo partly drawn) [Example 148, 7′-(2-((S)-2-methylazetidin-1-yl)-6,7-dihydro-5H-cyclopenta[d]pyrimidin-4-yl)-3′,4′-dihydro-2′H-spiro[cyclopropane-1,1′-naphthalene]-2-carboxylic acid] | 59.9 | 84 | 653 | 
